Data taken from patent US20260250290A1 (BRISTOL-MYERS SQUIBB COMPANY, priority 2023, published 2026).

Each molecule was assayed against T1, full length SGK1 (Homo sapiens, UniProt O00141) (assay: SGK1 inhibition Assay A (Caliper LabChip electrophoretic separation of fluorescent peptide substrate and phosphorylated product)). Conditions: Assay A; 20 μM ATP, 40 min incubation; read-out: SGK1 IC50.
T1 construct: 125 μM full length SGK1 (Life Technologies Part #PR7358A); purchased Life Technologies PR7358A
T1 sequence (O00141 1-431): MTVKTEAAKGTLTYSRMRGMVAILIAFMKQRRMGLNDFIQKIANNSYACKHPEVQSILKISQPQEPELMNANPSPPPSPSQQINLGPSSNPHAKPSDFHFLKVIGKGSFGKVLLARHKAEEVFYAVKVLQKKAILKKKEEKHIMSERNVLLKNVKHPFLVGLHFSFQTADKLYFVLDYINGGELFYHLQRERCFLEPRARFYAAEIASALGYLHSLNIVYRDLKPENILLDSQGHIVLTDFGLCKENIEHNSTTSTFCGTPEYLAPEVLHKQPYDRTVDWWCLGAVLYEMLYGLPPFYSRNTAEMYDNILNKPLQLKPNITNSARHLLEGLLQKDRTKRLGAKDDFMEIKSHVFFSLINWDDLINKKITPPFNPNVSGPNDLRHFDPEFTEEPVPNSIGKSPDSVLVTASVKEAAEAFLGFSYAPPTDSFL
Assay type: biochemical
`CN(C)CCOc1c(C(=O)N[C@@H]2CCCN(c3cc(-c4ccc(C#N)nc4)n4ncnc(N)c34)C2)sc2ccncc12` [Example 666, (R)—N-(1-(4-amino-7-(6-cyanopyridin-3-yl)pyrrolo[2,1-f][1,2,4]triazin-5-yl)piperidin-3-yl)-3-(2-(dimethylamino)ethoxy)thieno[3,2-c]pyridine-2-carboxamide] gave an IC50 of 11 nM.
`COC(=O)N1CC=C(c2cc(N3CCC[C@@H](NC(=O)c4sc5ccncc5c4OCCN(C)C)C3)c3c(N)ncnn23)C1` [Example 668, methyl (R)-3-(4-amino-5-(3-(3-(2-(dimethylamino)ethoxy)thieno [3,2-c]pyridine-2-carboxamido)piperidin-1-yl)pyrrolo[2,1-f] [1,2,4]triazin-7-yl)-2,5-dihydro-1H-pyrrole-1-carboxylate] gave an IC50 of 21 nM.
For `CC(=O)N1CC=C(c2cc(N3CCC[C@@H](NC(=O)c4sc5ccncc5c4OCCN(C)C)C3)c3c(N)ncnn23)C1` [Example 669, (R)-N-(1-(7-(1-acetyl-2,5-dihydro-1H-pyrrol-3-yl)-4-aminopyrrolo[2,1-f][1,2,4]triazin-5-yl)piperidin-3-yl)-3-(2-(dimethylamino)ethoxy)thieno [3,2-c]pyridine-2-carboxamide], the IC50 was 22 nM.
`CN(C)CCOc1c(C(=O)N[C@@H]2CCCN(c3cc(-c4ccc(C(N)=O)nc4)n4ncnc(N)c34)C2)sc2ccncc12` [Example 670, (R)-N-(1-(4-amino-7-(6-carbamoylpyridin-3-yl)pyrrolo[2,1-f] [1,2,4]triazin-5-yl)piperidin-3-yl)-3-(2-(dimethylamino)ethoxy)thieno [3,2-c]pyridine-2-carboxamide] was tested, and the IC50 was 40 nM.
Work on `COC(=O)N1CCC(c2cc(N3CCC[C@@H](NC(=O)c4sc5ccccc5c4OC4CN(C(=O)OC(C)(C)C)C4)C3)c3c(N)ncnn23)C1` (stereo partly drawn) [Example 671, methyl 3-(4-amino-5-((R)-3-(3-((1-(tert-butoxycarbonyl)azetidin-3-yl)oxy)benzo[b]thiophene-2-carboxamido)piperidin-1-yl)pyrrolo[2,1-f][1,2,4]triazin-7-yl)pyrrolidine-1-carboxylate] yielded an IC50 of 67 nM.
With `CC(=O)N1CC=C(c2cc(N3CCC[C@@H](NC(=O)c4sc5ccccc5c4OC4CN(C(=O)OC(C)(C)C)C4)C3)c3c(N)ncnn23)C1` [Example 673, tert-butyl (R)-3-((2-((1-(7-(1-acetyl-2,5-dihydro-1H-pyrrol-3-yl)-4-aminopyrrolo [2,1-f][1,2,4]triazin-5-yl)piperidin-3-yl)carbamoyl)benzo[b]thiophen-3-yl)oxy)azetidine-1-carboxylate] the IC50 was 96 nM.
With `COC(=O)N1CC=C(c2cc(N3CCC[C@@H](NC(=O)c4sc5ccccc5c4OC4CNC4)C3)c3c(N)ncnn23)C1` [Example 674, methyl (R)-3-(4-amino-5-(3-(3-(azetidin-3-yloxy)benzo[b]thiophene-2-carboxamido)piperidin-1-yl)pyrrolo[2,1-f][1,2,4]triazin-7-yl)-2,5-dihydro-1H-pyrrole-1-carboxylate] the IC50 was 85 nM.
Molecule `NC(=O)c1ccc(-c2cc(N3CCC[C@@H](NC(=O)c4sc5ccccc5c4OC4CNC4)C3)c3c(N)ncnn23)cn1` [Example 675, (R)-5-(4-amino-5-(3-(3-(azetidin-3-yloxy)benzo[b]thiophene-2-carboxamido)piperidin-1-yl)pyrrolo[2,1-f][1,2,4]triazin-7-yl)picolinamide] has an IC50 of 25 nM.
Work on `CC(=O)N1CC=C(c2cc(N3CCC[C@@H](NC(=O)c4sc5ccc(C#N)cc5c4OC4CCN(C(=O)OC(C)(C)C)CC4)C3)c3c(N)ncnn23)C1` [Example 676, tert-butyl (R)-4-((2-((1-(7-(1-acetyl-2,5-dihydro-1H-pyrrol-3-yl)-4-aminopyrrolo[2,1-f][1,2,4]triazin-5-yl)piperidin-3-yl)carbamoyl)-5-cyanobenzo[b]thiophen-3-yl)oxy)piperidine-1-carboxylate] yielded an IC50 of 117 nM.
`CC(=O)N1CC=C(c2cc(N3CCC[C@@H](NC(=O)c4sc5ccc(C#N)cc5c4OC4CCNCC4)C3)c3c(N)ncnn23)C1` [Example 677, (R)—N-(1-(7-(1-acetyl-2,5-dihydro-1H-pyrrol-3-yl)-4-aminopyrrolo[2,1-f][1,2,4]triazin-5-yl)piperidin-3-yl)-5-cyano-3-(piperidin-4-yloxy)benzo[b]thiophene-2-carboxamide] showed an IC50 of 35 nM.
`COC(=O)N1CC=C(c2cc(N3CCC[C@@H](NC(=O)c4sc5ccc(C#N)cc5c4OC4CCN(C(=O)OC(C)(C)C)CC4)C3)c3c(N)ncnn23)C1` [Example 678, tert-butyl (R)-4-((2-((1-(4-amino-7-(1-(methoxycarbonyl)-2,5-dihydro-1H-pyrrol-3-yl)pyrrolo[2,1-f][1,2,4]triazin-5-yl)piperidin-3-yl)carbamoyl)-5-cyanobenzo[b]thiophen-3-yl)oxy)piperidine-1-carboxylate] gave an IC50 of 477 nM.
With `CC(=O)N1CC=C(c2cc(N3CCC[C@@H](NC(=O)c4cn5ccc(C#N)cc5n4)C3)c3c(N)ncnn23)C1` [Example 679, (R)—N-(1-(7-(1-acetyl-2,5-dihydro-1H-pyrrol-3-yl)-4-aminopyrrolo[2,1-f][1,2,4]triazin-5-yl)piperidin-3-yl)-7-cyanoimidazo[1,2-a]pyridine-2-carboxamide] the IC50 was 484 nM.
Molecule `CCn1cc(-c2cc(N3CCC[C@@H](NC(=O)c4sc(Cl)cc4OCCN(C)C)C3)c3c(N)ncnn23)ccc1=O` [Example 682, (R)—N-(1-(4-amino-7-(1-ethyl-6-oxo-1,6-dihydropyridin-3-yl)pyrrolo[2,1-f][1,2,4]triazin-5-yl)piperidin-3-yl)-5-chloro-3-(2-(dimethylamino)ethoxy)thiophene-2-carboxamide] has an IC50 of 1420 nM.
`N=c1ccc(-c2cc(N3CCC[C@@H](NC(=O)c4ccc(Cl)s4)C3)c3c(N)ncnn23)cn1C(F)F` [Example 683] showed an IC50 of 193 nM.
`COC(=O)N1CC=C(c2cc(N3CCC[C@@H](NC(=O)c4n[nH]c5ccc(C#N)cc45)C3)c3c(N)ncnn23)C1` [Example 684, methyl (R)-3-(4-amino-5-(3-(5-cyano-1H-indazole-3-carboxamido)piperidin-1-yl)pyrrolo[2,1-f][1,2,4]triazin-7-yl)-2,5-dihydro-1H-pyrrole-1-carboxylate] gave an IC50 of 261 nM.
`N#Cc1ccc2[nH]nc(C(=O)N[C@@H]3CCCN(c4cc(-c5cncnc5)n5ncnc(N)c45)C3)c2c1` [Example 685, (R)—N-(1-(4-amino-7-(pyrimidin-5-yl)pyrrolo[2,1-f][1,2,4]triazin-5-yl)piperidin-3-yl)-5-cyano-1H-indazole-3-carboxamide] was tested, and the IC50 was 276 nM.
In the case of `COC(=O)N1CC=C(c2cc(N3CCC[C@@H](NC(=O)c4sc5ccc(F)cc5c4OC4CCNCC4)C3)c3c(N)ncnn23)C1` [Example 686, methyl (R)-3-(4-amino-5-(3-(5-fluoro-3-(piperidin-4-yloxy)benzo[b]thiophene-2-carboxamido)piperidin-1-yl)pyrrolo[2,1-f][1,2,4]triazin-7-yl)-2,5-dihydro-1H-pyrrole-1-carboxylate], the IC50 is reported as 7 nM.
Molecule `Nc1ncnn2c(-c3cncnc3)cc(N3CCC[C@@H](NC(=O)c4sc5ccc(F)cc5c4OC4CCNCC4)C3)c12` [Example 688, (R)—N-(1-(4-amino-7-(pyrimidin-5-yl)pyrrolo[2,1-f][1,2,4]triazin-5-yl)piperidin-3-yl)-5-fluoro-3-(piperidin-4-yloxy)benzo[b]thiophene-2-carboxamide] has an IC50 of 161 nM.
Molecule `COC(=O)N1CC=C(c2cc(N3CCC[C@@H](NC(=O)c4n[nH]c5ccc(N)cc45)C3)c3c(N)ncnn23)C1` [Example 689, methyl (R)-3-(4-amino-5-(3-(5-amino-1H-indazole-3-carboxamido)piperidin-1-yl)pyrrolo[2,1-f][1,2,4]triazin-7-yl)-2,5-dihydro-1H-pyrrole-1-carboxylate] has an IC50 of 53 nM.
`Nc1ccc2[nH]nc(C(=O)N[C@@H]3CCCN(c4cc(-c5cncnc5)n5ncnc(N)c45)C3)c2c1` [Example 690, (R)-5-amino-N-(1-(4-amino-7-(pyrimidin-5-yl)pyrrolo[2,1-f][1,2,4]triazin-5-yl)piperidin-3-yl)-1H-indazole-3-carboxamide] gave an IC50 of 507 nM.
For `Cc1cc(-c2cc(N3CCC[C@@H](NC(=O)c4sc(Cl)cc4OCCN(C)C)C3)c3c(N)ncnn23)cn(C)c1=O` [Example 691, (R)—N-(1-(4-amino-7-(1,5-dimethyl-6-oxo-1,6-dihydropyridin-3-yl)pyrrolo[2,1-f][1,2,4]triazin-5-yl)piperidin-3-yl)-5-chloro-3-(2-(dimethylamino)ethoxy)thiophene-2-carboxamide], the IC50 was 115 nM.
`CCn1cc(-c2cc(N3CCC[C@@H](NC(=O)c4sc(Cl)cc4OCCN(C)C)C3)c3c(N)ncnn23)cc(C)c1=O` [Example 692, (R)—N-(1-(4-amino-7-(1-ethyl-5-methyl-6-oxo-1,6-dihydropyridin-3-yl)pyrrolo[2,1-f][1,2,4]triazin-5-yl)piperidin-3-yl)-5-chloro-3-(2-(dimethylamino)ethoxy)thiophene-2-carboxamide] gave an IC50 of 98 nM.
With `Cc1cc(-c2cc(N3CCC[C@@H](NC(=O)c4sc(Cl)cc4OCCN(C)C)C3)c3c(N)ncnn23)cn(C(C)C)c1=O` [Example 693, (R)—N-(1-(4-amino-7-(1-isopropyl-5-methyl-6-oxo-1,6-dihydropyridin-3-yl)pyrrolo[2,1-f][1,2,4]triazin-5-yl)piperidin-3-yl)-5-chloro-3-(2-(dimethylamino)ethoxy)thiophene-2-carboxamide] the IC50 was 69 nM.
